Assay results: PubChem BioAssay (NCI)
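The compound was tested at five concentrations on cells cultured in 96-well plates, with a 48-hour exposure period. GI50 is the concentration that inhibits growth by half. TGI: concentration producing complete growth inhibition.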 *1 amine or outer side, *2 acyl side, *3 side chain or, on linkers, in order; H or OH if unused. Where a SMILES comes first, the peptide text is derived from it. [ ]: non-standard residue; d: D form. The star is where a group is joined. X11 = C/C=C/CC(C)C(O)[C@H](N[*:1])C(=O)[*:2]; Leu(ol) = CC(C)C[C@H](N)CO; Iva = CC[C@](C)(N)C(=O)O; Octanoyl = CCCCCCCC(=O)*; Aib = CC(C)(N)C(=O)O

Columns and labels:
Test in all cases: growth of human tumour cells (NCI), 48 h
[1] = test system: MDA-MB-231 breast
[2] = test system: OVCAR-4 ovarian
[3] = test system: SR leukemia
[4] = test system: PC-3 prostate
[5] = test system: KM12 colon
[6] = test system: HL-60(TB) leukemia
[7] = test system: MCF7 breast
[8] = test system: ACHN renal
[9] = test system: SN12C renal
[10] = test system: T-47D breast
[11] = test system: SNB-19 CNS
[12] = test system: MDA-MB-435
[13] = test system: SF-539 CNS
[14] = test system: IGROV1 ovarian
[15] = test system: NCI-H460 lung
[16] = test system: SF-295 CNS
[17] = test system: SK-MEL-28 melanoma
[18] = test system: MOLT-4 leukemia
[19] = test system: A498 renal
[20] = test system: OVCAR-5 ovarian
[21] = test system: SW-620 colon
[22] = test system: LOX IMVI melanoma
[23] = test system: HT29 colon
[24] = test system: HCC-2998 colon
[25] = test system: SK-MEL-5 melanoma
[26] = test system: M14 melanoma
[27] = test system: TK-10 renal
[28] = test system: COLO 205 colon
[29] = test system: NCI/ADR-RES ovarian
[30] = test system: UO-31 renal
[31] = test system: EKVX NSCLC
[32] = test system: OVCAR-8 ovarian
[33] = test system: UACC-62 melanoma
[34] = test system: UACC-257 melanoma
[35] = test system: HS 578T breast
[36] = test system: 786-0 renal
[37] = test system: CCRF-CEM leukemia
[38] = test system: RXF 393 renal
[39] = test system: A549 NSCLC
[40] = test system: SNB-75 CNS
[41] = test system: SK-MEL-2 melanoma
[42] = test system: MALME-3M melanoma
[43] = test system: U251 CNS
[44] = test system: HCT-15 colon
[45] = test system: HCT-116 colon
[46] = test system: SF-268 CNS
[47] = test system: RPMI-8226 leukemia
[48] = test system: DU-145 prostate
[49] = test system: BT-549 breast
[50] = test system: CAKI-1 renal
[51] = test system: OVCAR-3 ovarian
[52] = test system: HOP-62 NSCLC
[53] = test system: NCI-H522 lung
[54] = test system: NCI-H226 lung
[55] = test system: K-562 leukemia
[56] = test system: SK-OV-3 ovarian

## C/C=C/CC(C)C(O)[C@H](NC(=O)[C@@H]1CCCN1C(=O)C(C)(C)NC(=O)CCCCCCC)C(=O)N[C@@](C)(CC)C(=O)N[C@@H](CCC(N)=O)C(=O)N[C@H](CCC(N)=O)C(=O)NC(C)(C)C(=O)NC(C)(C)C(=O)N[C@@H](CCC(N)=O)C(=O)N[C@H](CC(C)C)C(=O)N[C@H](CO)CC(C)C (stereo partly drawn) (Octanoyl-[Aib]P[X11][Iva]Q[dQ][Aib][Aib]Q[dL][Leu(ol)])
[1]
  GI50: 3.16 µM
  TGI: 10.1 µM
[2]
  GI50: 10.4 µM
  TGI: 24.1 µM
[3]
  GI50: 1.79 µM
  TGI: 3.64 µM
[4]
  GI50: 2.34 µM
  TGI: 6.75 µM
[5]
  GI50: 2.16 µM
  TGI: 4.77 µM
[6]
  GI50: 1.74 µM
  TGI: 3.86 µM
[7]
  GI50: 2.95 µM
  TGI: 10.7 µM
[8]
  GI50: 7.45 µM
  TGI: 19.9 µM
[9]
  GI50: 3.12 µM
  TGI: 11.6 µM
[10]
  GI50: 4.34 µM
  TGI: 20.3 µM
[11]
  GI50: 3.95 µM
  TGI: 14.6 µM
[12]
  GI50: 1.93 µM
  TGI: 3.83 µM
[13]
  GI50: 1.95 µM
  TGI: 4.14 µM
[14]
  GI50: 6.83 µM
  TGI: 20.3 µM
[15]
  GI50: 3.89 µM
  TGI: 13.1 µM
[16]
  GI50: 2.27 µM
  TGI: 5.61 µM
[17]
  GI50: 1.81 µM
  TGI: 3.38 µM
[18]
  GI50: 2.43 µM
  TGI: 5.62 µM
[19]
  GI50: 2.74 µM
  TGI: 7.25 µM
[20]
  GI50: 5.64 µM
  TGI: 18.7 µM
[21]
  GI50: 6.91 µM
  TGI: 20.2 µM
[22]
  GI50: 3.56 µM
  TGI: 13.6 µM
[23]
  GI50: 7.35 µM
  TGI: 20.6 µM
[24]
  GI50: 3 µM
  TGI: 10.1 µM
[25]
  GI50: 1.85 µM
  TGI: 3.52 µM
[26]
  GI50: 2.66 µM
  TGI: 7.2 µM
[27]
  GI50: 4.54 µM
  TGI: 15 µM
[28]
  GI50: 2.03 µM
  TGI: 4.04 µM
[29]
  GI50: 8.82 µM
  TGI: 22.4 µM
[30]
  GI50: 3.1 µM
  TGI: 14.9 µM
[31]
  GI50: 2.83 µM
  TGI: 9.74 µM
[32]
  GI50: 3.16 µM
  TGI: 12.3 µM
[33]
  GI50: 3.02 µM
  TGI: 11.2 µM
[34]
  GI50: 1.8 µM
  TGI: 3.75 µM
[35]
  GI50: 2.45 µM
  TGI: 6.8 µM
[36]
  GI50: 2.71 µM
  TGI: 7.6 µM
[37]
  GI50: 2.35 µM
  TGI: 5.63 µM
[38]
  GI50: 1.79 µM
  TGI: 3.37 µM
[39]
  GI50: 5.12 µM
  TGI: 21 µM
[40]
  GI50: 1.42 µM
  TGI: 3.24 µM
[41]
  GI50: 6.7 µM
  TGI: 19.4 µM
[42]
  GI50: 1.96 µM
  TGI: 4.68 µM
[43]
  GI50: 1.74 µM
  TGI: 3.2 µM
[44]
  GI50: 5.2 µM
  TGI: 18.2 µM
[45]
  GI50: 4.11 µM
  TGI: 16 µM
[46]
  GI50: 2.96 µM
  TGI: 10.2 µM
[47]
  GI50: 2.38 µM
  TGI: 5.28 µM
[48]
  GI50: 2.15 µM
  TGI: 4.61 µM
[49]
  GI50: 2.01 µM
  TGI: 3.63 µM
[50]
  GI50: 4.89 µM
  TGI: 18.4 µM
[51]
  GI50: 10.6 µM
  TGI: 24 µM
[52]
  GI50: 3.16 µM
  TGI: 11.2 µM
[53]
  GI50: 2.27 µM
  TGI: 6.34 µM
[54]
  GI50: 2.25 µM
  TGI: 5.92 µM
[55]
  GI50: 1.85 µM
  TGI: 3.52 µM
[56]
  GI50: 10.7 µM
  TGI: 23.9 µM
